These results are taken from patent US9116157B2, “Ice-cleaved alpha-synuclein as a biomarker” (Brandeis University, priority 2010, dated 2015).

A short description of data set [1]: Blood-brain barrier penetration in animals, preliminary tests. In kind it is in vivo. An excerpt: The present example describes an approach for assessing is the ability of, inter alia, the two compounds referenced above (i.e., VX-765 and NCGC00185682) to cross the blood brain-barrier (BBB). […] In view of the fact that studies of VX-765 as a potential epilepsy therapeutic are currently underway at Vertex, it is hypothesized that either BBB penetration in humans is better or that the amount of compound in the CNS that is needed to achieve the desired effect being measured in the studies is small.

Data set [2] concerns the target T1, ICE (Homo sapiens, UniProt P29466).
T1 sequence (P29466 120-297 limits assumed): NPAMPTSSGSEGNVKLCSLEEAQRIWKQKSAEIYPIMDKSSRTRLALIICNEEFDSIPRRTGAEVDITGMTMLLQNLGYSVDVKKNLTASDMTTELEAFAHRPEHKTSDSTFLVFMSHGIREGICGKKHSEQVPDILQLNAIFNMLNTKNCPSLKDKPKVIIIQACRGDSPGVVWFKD
T1 sequence (P29466 317-404 limits assumed): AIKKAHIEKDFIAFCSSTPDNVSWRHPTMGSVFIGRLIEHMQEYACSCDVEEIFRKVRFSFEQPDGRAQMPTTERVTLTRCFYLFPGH
As to the kind of experiment: ICE digestion of α-synuclein in vitro, SDS-PAGE and western blot with anti-synuclein antibody. In kind it is biochemical. The protocol: Here, a 60 ul reaction mixture consisting of 21 μg of synuclein, 10 μg ICE in 100 mM HEPES, pH 7.4, 0.1% OG, 10% glycerol, 150 mM NaCl, with or without 20 μM inhibitor was incubated at 37° C. for 2 hours. 20 μl were withdrawn from the reaction for SDS-PAGE followed by western blotting with anti-synuclein antibody (FIG. 6).
(Immunoblotting shows a protein as a band on a membrane.)

For data set [3], the system named is M17 cells overexpressing alpha-synuclein. As to the kind of experiment: LIVE/DEAD cell viability assay, rescue from alpha-synuclein-induced toxicity. The following applies: FIG. 10. In kind it is cell-based, human. The text has this:
(§1) Humans have 28 calpain and caspase isozymes—a large but not impossible number to test. RNAi was used to knock down each of these in turn in a neuronal cell culture model of PD. It is a neuroblastoma cell line (BE(2)-M17) carrying a wild-type α-synuclein overexpressing vector. BE(2)-M17 is a clone of the SK-N-BE(2) cell line that was established in November of 1972 from a bone marrow biopsy taken from a child with neuroblastoma. Synuclein on its own is not toxic to these cells, but it is toxic when combined with an oxidative stress agent such as rotenone or menadione. Greater than 90% reduction of mRNA levels for each of the 29 protease genes was routinely achieved, and greater than 50% reduction in protein levels (typically, about 70% reduction) was routinely achieved.
A cell viability assay was performed using LIVE/DEAD (molecular probes) assay according to the manufacture instructions. As summarized in FIG. 10, both RNAi knockdown of caspase-1/ICE and treatment with the caspase-1/ICE inhibitor block synuclein fragment formation in nerve cells and should inhibit synuclein aggregation in neuronal cells derived from one or more mouse models of PD.

The test system of data set [4] is M17 cells carrying empty pcDNA3 vector. As to the kind of experiment: M17 cell viability in the presence of menadione (empty vector). The data set is classed as cell-based, human. The following applies: low concentrations; FIG. 8.
Data set [5] concerns M17 overexpressing α-synuclein. As to the kind of experiment: α-synuclein fragmentation in M17 cells, western blot with anti-synuclein antibody. In kind it is cell-based, human. As to conditions: 12 μM and 14 μM in 1% DMSO; FIG. 9. As to the method: In this set of experiments, M17 overexpressing α-synuclein was grown in Optimem in presence or absence of menadione to confluence. Cells were then scraped and lysed by sonnication for SDS-PAGE followed by western blotting with anti-synuclein antibody.

Data set [6] concerns M17 cells overexpressing α-synuclein. As to the kind of experiment: M17 cell viability in the presence of menadione (α-synuclein overexpression). The data set is classed as cell-based, human. The following applies: low concentrations; FIG. 8.
Description: as §1

SMILES strings stand for the structures.

With `CC(C)(C)[C@H](NC(=O)c1ccc(N)c(Cl)c1)C(=O)N1CCC[C@H]1C(=O)N[C@H](C#N)CC(=O)O` [NCGC00185682], the BBB penetration result in data set [1] is on record as “low”. The “ICE-generated α-synuclein fragment below 17 kD (western blot)” value in data set [2] (20 μM inhibitor, 10 μg ICE, 37° C., 2 hours) is reported as “diminished”. Also, in data set [2] (dose-dependent, FIG. 6), the “block of caspase-1 cleavage of alpha-synuclein” value is reported as “completely blocks”.
For `CCO[C@@H]1OC(=O)C[C@@H]1NC(=O)[C@@H]1CCCN1C(=O)[C@@H](NC(=O)c1ccc(N)c(Cl)c1)C(C)(C)C` [VX-765], in data set [1], the BBB penetration result is “low”. Also, in data set [3], the “rescue from alpha-synuclein-induced toxicity (cell viability)” value is given as “rescued”.
On to `CC1=CC(=O)c2ccccc2C1=O` [menadione], for which the “toxicity to M17 cells carrying empty pcDNA3 vector” value in data set [4] was “not toxic”. Besides, the “fragmentation of α-synuclein (smaller fragment below 17 kD)” value in data set [5] is on record as “induced fragmentation of α-synuclein”. The “toxicity to M17 cells overexpressing α-synuclein” value in data set [6] is reported as “toxic”.
